# Laboratory results as given in patent publication US5539119A, “Indole derivatives” (priority 1990, dated 1996).
# Read-outs that look alike come from different tables or passages of the source.
# Assays:
# mouse T cells = test: Inhibiting proliferation of mouse T cells by Con-A stimulation ([3H]thymidine uptake, spleen cells); type: cell-based
# Description: Now, the immunosuppressive activity of the compound 19 which is representative of the compounds of the present invention will be shown. Activity in inhibiting proliferation of mouse T cells by Con-A stimulation
# A monocellular suspension was prepared by sterilely removing the spleen from a mouse and passing the spleen through a mesh. This suspension was adjusted to a concentration of 5×10^6 cells/ml and dispensed by the unit of 100 μl in all the individual wells of a 96-well plate. […] Eight hours before completion of the incubation, [^3 H]thymidine was added to the contents of the wells in a fixed ratio of 2 μCi/10 μl/well. Eight hours after this addition, the cells in the wells were collected on filter papers with the aid of a cell harvester. The cells on the filter papers were dried, then combined with a toluene type scintillator, and counted for the radioactivity of the [^3 H] thymidine occluded in the cells by means of a scintillation counter.
# The ratio of suppression of T cell proliferation was calculated in accordance with the following formula:
# Rate of suppression=(Radioactivity in the absence of compound-Radioactivityafter addition of compound)/(Radioactivity in the absence of compound-Radioactivity in the absence of ConA)
# δ opioid receptor [1] = test: Bonding (binding) assay, guinea pig brain homogenate, DPDPE (hot) / DADLE (cold); conditions: μ/δ
# Description: (§1) In the test for bonding, the homogenate of the brain of a guinea pig was diluted with Tris buffer in a ratio calculated to give to the produced solution a protein content of 0.7 mg per prot/tube was used as incorporated in the reaction solution. With regard to ligands for binding assay, 3H-DAGO (μ), DPDPE (δ), and EKC (κ) were used for hot samples and naloxone (μ), DADLE (δ), and naloxone (κ) for cold samples.
# δ-receptor = biological target: T1, δ-receptor (Mus musculus, UniProt P32300); test: Antagonism to DPDPE in Mouse Vas Deferens (MVD)
# T1 construct: from tissue; host or cells: mouse vas deferens
# T1 sequence (P32300 whole entry): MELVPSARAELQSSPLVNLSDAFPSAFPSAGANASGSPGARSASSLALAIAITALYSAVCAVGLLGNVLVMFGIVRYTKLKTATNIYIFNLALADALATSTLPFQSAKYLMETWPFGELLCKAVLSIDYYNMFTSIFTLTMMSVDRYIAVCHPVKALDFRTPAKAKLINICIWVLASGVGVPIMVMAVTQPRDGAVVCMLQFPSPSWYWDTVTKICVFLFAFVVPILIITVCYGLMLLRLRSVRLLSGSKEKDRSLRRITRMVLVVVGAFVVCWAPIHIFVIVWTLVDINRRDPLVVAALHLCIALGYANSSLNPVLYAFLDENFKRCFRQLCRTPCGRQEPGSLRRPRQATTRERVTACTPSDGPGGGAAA
# [2] = tested on: Guinea Pig Ileal Longitudinal Muscle; test: Agonist activity in Guinea Pig Ileal Longitudinal Muscle (GPI); conditions: guinea pig ileum
# Description: (§2) The test of the compounds of this invention for agonist and antagonist activities was carried out in according to the method proposed by Takemori et al. (Takemori, A, E. et al.: Eur. J. Pharmacal., 1982, 85, 163) using Guinea Pig Ileal Longitudinal Muscle Mouse Vas Deferens (MVD).
# [3] = tested on: Guinea Pig Ileal Longitudinal Muscle; test: GPI, shift of the compound's effect by naloxone or nor-BNI; set-up: GPI nor-BN1 Ke: unit not given here
# Description: as §2
# κ opioid receptor = biological target: T2, κ opioid receptor (Cavia porcellus, UniProt P41144); test: Bonding (binding) assay, guinea pig brain homogenate, EKC (hot) / naloxone (cold)
# T2 construct: the homogenate of the brain of a guinea pig; from tissue; host or cells: guinea pig brain homogenate
# T2 sequence (P41144 whole entry): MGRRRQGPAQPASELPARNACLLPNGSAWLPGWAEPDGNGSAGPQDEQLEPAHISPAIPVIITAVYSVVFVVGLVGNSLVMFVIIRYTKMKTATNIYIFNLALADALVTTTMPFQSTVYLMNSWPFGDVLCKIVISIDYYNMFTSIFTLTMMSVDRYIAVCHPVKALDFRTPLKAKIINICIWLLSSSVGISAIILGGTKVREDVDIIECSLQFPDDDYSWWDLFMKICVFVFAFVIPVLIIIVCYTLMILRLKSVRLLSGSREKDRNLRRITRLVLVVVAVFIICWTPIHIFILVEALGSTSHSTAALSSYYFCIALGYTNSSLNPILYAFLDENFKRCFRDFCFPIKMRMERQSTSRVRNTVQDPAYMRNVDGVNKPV
# Description: as §1
# μ opioid receptor = biological target: T3, μ opioid receptor (Cavia porcellus, UniProt A0ACM8Q262); test: Bonding (binding) assay, guinea pig brain homogenate, 3H-DAGO (hot) / naloxone (cold); conditions: for Ki: guinea pig brain homogenate; for Ki ratio κ/μ: selectivity ratio
# T3 construct: 3H-DAGO (DAMGO) radioligand, cold naloxone
# T3 sequence (A0ACM8Q262 1-400): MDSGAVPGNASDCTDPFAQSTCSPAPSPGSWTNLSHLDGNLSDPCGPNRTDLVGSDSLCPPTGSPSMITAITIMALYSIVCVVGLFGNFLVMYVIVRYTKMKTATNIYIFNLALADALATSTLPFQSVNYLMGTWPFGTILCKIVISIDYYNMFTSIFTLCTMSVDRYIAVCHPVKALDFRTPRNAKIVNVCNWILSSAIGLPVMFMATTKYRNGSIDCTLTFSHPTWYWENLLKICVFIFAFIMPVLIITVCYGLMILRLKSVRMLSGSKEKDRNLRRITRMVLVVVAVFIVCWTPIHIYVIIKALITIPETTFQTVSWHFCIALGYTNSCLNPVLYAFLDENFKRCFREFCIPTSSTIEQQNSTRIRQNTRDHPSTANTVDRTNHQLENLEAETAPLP
# Description: as §1
# δ opioid receptor [4] = biological target: T4, δ opioid receptor (Cavia porcellus, UniProt A0A286XTF2); test: Bonding (binding) assay, guinea pig brain homogenate, DPDPE (hot) / DADLE (cold)
# T4 construct: the homogenate of the brain of a guinea pig; from tissue; host or cells: guinea pig brain homogenate
# T4 sequence (A0A286XTF2 1-366): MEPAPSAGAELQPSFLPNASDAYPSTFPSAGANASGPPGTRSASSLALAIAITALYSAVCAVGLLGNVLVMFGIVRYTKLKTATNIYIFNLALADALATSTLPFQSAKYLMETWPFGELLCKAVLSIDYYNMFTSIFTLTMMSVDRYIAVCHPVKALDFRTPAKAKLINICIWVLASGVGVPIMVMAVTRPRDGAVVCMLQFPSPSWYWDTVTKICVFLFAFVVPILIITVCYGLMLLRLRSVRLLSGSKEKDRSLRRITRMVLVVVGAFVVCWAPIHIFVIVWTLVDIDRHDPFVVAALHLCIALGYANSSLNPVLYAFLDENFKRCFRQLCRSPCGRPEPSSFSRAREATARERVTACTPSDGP
# Description: as §1
# Mouse Vas Deferens (MVD) = test: Agonist activity in Mouse Vas Deferens (MVD); conditions: read-out: MVD IC50
# Description: as §2
# [5] = Mus musculus, T-cell, 48 h, read-out: Ratio of suppression of T cell proliferation
# [6] = MVD Antagonism to DPDPE at 100 nM, pA2, at 100 nM
# [7] = Mus musculus, T-cell, ConA-stimulated mouse T cells, read-out: IC50, activity in inhibiting T cell hyperplasia (Table 3)
# [8] = MVD Antagonism to DPDPE, pA2, (20 nM)
# [9] = MVD Antagonism to DPDPE, pA2, (50 nM)
# [10] = guinea pig brain homogenate, read-out: Bonding assay Ki value δ
Compound,Ki ratio μ/δ (δ opioid receptor [1]; selectivity ratio),IC50 [2] [nM],GPI naloxone DR [3],GPI nor-BN1 DR [3],Ki (κ opioid receptor) [nM],Ki (μ opioid receptor) [nM],Ki ratio κ/μ (μ opioid receptor),IC50 (mouse T cells; [7]) [µg/mL],Ki (δ opioid receptor [4]) [nM],Ki ratio μ/δ (δ opioid receptor [1]),"MVD Antagonism to DPDPE, DR (δ-receptor; (50 nM))",Kb (δ-receptor; [8]) [nM],Kb (δ-receptor; [9]) [nM],GPI nor-BN1 Ke [3],GPI nor-BN1 pA2 [3],further results
"Oc1ccc2c3c1O[C@H]1c4[nH]c5ccccc5c4C[C@@]4(O)[C@@H](C2)N(CC2CC2)CC[C@]314 [NTI, nartol indole, reference compound]",100,,,,,,,,,,,,,,,"inhibition at 0.1 µg/mL (mouse T cells; [5]): 0%; inhibition at 0.5 µg/mL (mouse T cells; [5]): 0%; inhibition at 0.75 µg/mL (mouse T cells; [5]): 0%; inhibition at 1 µg/mL (mouse T cells; [5]): 0%; inhibition at 2.5 µg/mL (mouse T cells; [5]): 0%; inhibition at 5 µg/mL (mouse T cells; [5]): 15%; inhibition at 7.5 µg/mL (mouse T cells; [5]): 35%; inhibition at 10 µg/mL (mouse T cells; [5]): 62%; inhibition at 12.5 µg/mL (mouse T cells; [5]): 85%; inhibition at 15 µg/mL (mouse T cells; [5]): 98%; inhibition at 17.5 µg/mL (mouse T cells; [5]): 100%; inhibition at 20 µg/mL (mouse T cells; [5]): 100%; IC50 (mouse T cells; Mus musculus, T-cell, read-out: IC50 value, immunosuppression (text to Table 2)): 8.6 µg/mL"
"Oc1cccc([C@]23CCN(CC4CC4)C[C@@H]2Cc2c([nH]c4ccc(F)cc24)C3)c1 (relative stereo) [Compound 37, 2-Cyclopropylmethyl-4aα-(3-hydroxyphenyl)-9-fluoro-1,2,3,4,4a,5,11,11aβ-octahydro-6H-indolo[2,3-g]isoquinoline]",223,10500,1.19,1.26,342,1550,0.22,1.9,6.94,49.3,,,,,,"Kb (δ-receptor; [6]): 6.31 nM; MVD Antagonism to DPDPE at 100 nM, DR (δ-receptor; at 100 nM): 8.93"
Oc1cccc([C@]23CCN(CC4CC4)C[C@]2(O)Cc2c([nH]c4ccccc24)C3)c1 (relative stereo) [Compound 56],423,,,,1550,723,2.14,14,1.71,906,,,,,,
"Oc1cccc([C@]23CCN(CC4CC4)C[C@@H]2Cc2c([nH]c4c(F)cccc24)C3)c1 (relative stereo) [Compound 29, 2-Cyclopropylmethyl-4aα-(3-hydroxyphenyl)-7-fluoro-1,2,3,4,4a,5,11,11aβ-octahydro-6H-indolo[2,3-g]isoquinoline]",618,6640,2.50,2.06,370,1180,0.31,0.9,1.91,194,34.1,3.89,1.51,18.9,7.72,"MVD Antagonism to DPDPE, DR (δ-receptor; (20 nM)): 6.22"
"Oc1cccc([C@]23CCN(CC4CC4)C[C@@H]2Cc2c([nH]c4ccccc24)C3)c1 (single isomer, unassigned) [Compound 52, (-)-2-Cyclopropylmethyl-4aα-(3-hydroxyphenyl)-1,2,3,4,4a,5,11,11aβ-octahydro-6H-indolo[2,3-g]isoquinoline]",,16400,1.06,1.03,2280,81100,,,,,,,,,,"Kb (δ-receptor; at 100 nM): 158 nM; MVD Antagonism to DPDPE at 100 nM, Ke (δ-receptor; at 100 nM): 158; IC50, activity in inhibiting T cell hyperplasia (Table 3) (mouse T cells; ConA-stimulated mouse T cells): 3.5 µg/mL; Ki (δ opioid receptor [4]; [10]): 135 nM"
"CN1CC[C@]2(c3cccc(O)c3)Cc3[nH]c4ccccc4c3C[C@@]2(O)C1 (relative stereo) [Compound 54, 2-Methyl-4aα-(3-hydroxyphenyl)-11aβ-hydroxy-1,2,3,4,4a,5,11,11a-octahydro-6H-indolo[2,3-q]isoquinoline]",,5960,1.30,3.30,662,,,,2.75,,22.4,5.75,1.7,8.70,8.06,IC50 (Mouse Vas Deferens (MVD)): 10200 nM
"Oc1cccc([C@]23CCN(CC4CC4)C[C@@H]2Cc2c([nH]c4c(Cl)cccc24)C3)c1 (relative stereo) [Compound 40, 2-Cyclopropylmethyl-4aα-(3-hydroxyphenyl)-7-chloro-1,2,3,4,4a,5,11,11aβ-octahydro-6H-indolo[2,3-g]isoquinoline]",199,11700,2.17,2.05,936,1650,0.57,2.6,8.31,113,18.5,10,2.88,19.0,7.72,"MVD Antagonism to DPDPE, DR (δ-receptor; (20 nM)): 3.02"
"CN1CC[C@]2(c3cccc(O)c3)Cc3[nH]c4ccc(Br)cc4c3C[C@H]2C1 (relative stereo) [Compound 10, 2-Methyl-4aα-(3-hydroxyphenyl)-9-bromo-1,2,3,4,4a,5,11,11aβ-octahydro-6H-indolo[2,3-g]isoquinoline]",,14300,0.92,1.31,,,,,,,,,,64.5,7.19,IC50 (Mouse Vas Deferens (MVD)): 21900 nM; Ki (δ opioid receptor [4]; [10]): 1390 nM
"C=CCN1CC[C@]2(c3cccc(O)c3)Cc3[nH]c4ccccc4c3C[C@H]2C1 (relative stereo) [Compound 31, 2-Allyl-4aα-(3-hydroxyphenyl)-1,2,3,4,4a,5,11,11aβ-octahydro-6H-indolo[2,3-g]isoquinoline]",> 9090,20500,0.93,0.98,2240,27000,0.09,2.6,2.97,754,,,,,,"Kb (δ-receptor; [6]): 12.9 nM; MVD Antagonism to DPDPE at 100 nM, DR (δ-receptor; at 100 nM): 4.84"
"Oc1cccc([C@]23CCN(CC4CC4)C[C@@H]2Cc2c([nH]c4ccccc24)C3)c1 (single isomer, unassigned) [Compound 47, (+)-2-Cyclopropylmethyl-4aα-(3-hydroxyphenyl)-1,2,3,4,4a,5,11,11aβ-octahydro-6H-indolo[2,3-g]isoquinoline]",,64500,1.06,1.29,388,1170,,3.8,0.37,,30.5,5.75,1.7,,,"MVD Antagonism to DPDPE, DR (δ-receptor; (20 nM)): 4.44"
"Cn1c2c(c3ccccc31)C[C@H]1CN(CC3CC3)CC[C@]1(c1cccc(O)c1)C2 (relative stereo) [Compound 25, 2-Cyclopropylmethyl-4aα-(3-hydroxyphenyl)-1,2,3,4,4a,5,11,11aβ-octahydro-6-methyl-indolo[2,3-g]isoquinoline]",552,14500,0.55,0.77,144,1530,0.09,3,2.77,52.0,,,,,,
